Values after ≈ are worked out from the molar mass of the structure shown. Active and inactive are the calls of the source. The calls are words filed in the database; no cut-off is given here.

In data set [1] the test system is Monilinia mali (Monilinia mali). As to the kind of experiment: Antifungal activity against Monilinia mali.
The next data set deals with Bipolaris oryzae. Description: Antifungal activity against Cochliobolus miyabeanus. In kind it is functional.
For another data set, the system named is Venturia inaequalis. As to the kind of experiment: Antifungal activity against Venturia inaequalis. In kind it is functional.
Data set [2] has as its system MCF7. As to the kind of experiment: Cytotoxicity against human MCF7 cells at 88 uM by resazurin microplate assay. Type of data set: functional, cell-based. (The colour change of resazurin is a common sign of viable cells or microbes.)
For data set [3], the system named is NCI-H187. Description: Cytotoxicity against human NCI-H187 cells at 178 uM by resazurin microplate assay. In kind it is functional, cell-based.
Data set [4] relates to KB. Description: Cytotoxicity against human KB cells at 178 uM by resazurin microplate assay. In kind it is functional, cell-based.
In data set [5] the test system is Vero. Description: Cytotoxicity against african green monkey Vero cells at 178 uM by Green fluorescent protein microplate assay. In kind it is cell-based. The note with it: chlorocebus sabaeus.
For data set [6], the system named is MCF7. As to the kind of experiment: Cytotoxicity against human MCF7 cells by resazurin microplate assay. Type of data set: functional, cell-based.
Data set [7] concerns NCI-H187. Description: Cytotoxicity against human NCI-H187 cells at 88 uM by resazurin microplate assay. Type of data set: functional, cell-based.
The subject of data set [8] is KB. Description: Cytotoxicity against human KB cells by resazurin microplate assay. In kind it is functional, cell-based.
A further data set deals with Plasmodium falciparum. As to the kind of experiment: Antimalarial activity against Plasmodium falciparum K1. Type of data set: functional, organism-based.
Data set [9] has as its system Mycobacterium tuberculosis. As to the kind of experiment: Antibacterial activity against Mycobacterium tuberculosis H37Ra by Green fluorescent protein microplate assay. Type of data set: functional.
For the next data set, the system named is Candida albicans. As to the kind of experiment: Antifungal activity against Candida albicans. In kind it is functional, organism-based.
In another data set the test system is Pyricularia grisea. Description: Antifungal activity against Magnaporthe grisea. In kind it is functional, organism-based.
For data set [10], the system named is Vero. As to the kind of experiment: Cytotoxicity against african green monkey Vero cells at 88 uM by Green fluorescent protein microplate assay. In kind it is cell-based. The note with it: chlorocebus sabaeus.

For `CCCCCCCCCC[C@@H](C)[C@@H]1CC(=O)N[C@H]([C@@H](C)O)C(=O)N[C@@H](C)C(=O)N[C@H](C)C(=O)N[C@@H](CCC(N)=O)C(=O)N[C@H](Cc2ccc(O)cc2)C(=O)N[C@@H](C(C)C)C(=O)O1` [WA 493 A], the MIC (in data set [1]; with Bipolaris oryzae; in the data set with Venturia inaequalis) was 1 µg/mL (≈ 1.14 µM) throughout.

For the molecule `CCC[C@H](O)C[C@@H]1Cc2cc(OC)cc(O)c2C(=O)O1`, the IC50 with MCF7 [2] and in the data set with MCF7 [6] was 62 µM throughout. The result in the data set on NCI-H187 [3] and in the data set on KB [4] was inactive. Further, the Activity entry with Vero [5] is “Not Active”.

In the case of `CCCCCCCCCC1CCCC(=O)N[C@H]([C@@H](C)O)C(=O)N[C@@H](C)C(=O)N[C@@H](C)C(=O)N[C@@H](CCC(N)=O)C(=O)N[C@@H](Cc2ccc(O)cc2)C(=O)N[C@@H](C(C)C)C(=O)O1` (stereo partly specified) [CORDYCOMMUNIN], the result with NCI-H187 [7] and in the data set on MCF7 [2] was inactive. In the data set with KB [8], this molecule showed an IC50 of 45 µM. In addition, the MIC entry with Plasmodium falciparum, in the data set on Candida albicans and with Pyricularia grisea was “inactive” each time. In [9], this molecule displayed an MIC of 15 µM (≈ 12.9 µg/mL). Also, the Activity entry in the data set on Vero [10] was “Not Active”.

As to `CCC[C@H](O)C[C@@H]1Cc2cc(OC)cc(OC)c2C(=O)O1`, the result (in the data set on NCI-H187 [7]; in the data set on MCF7 [2]; in [9]; in the data set with NCI-H187 [3]; in the data set on KB [4]; in the data set on MCF7 [6]) was inactive. Besides, in the data set with KB [8], the IC50 was 45 µM. Also, the MIC entry in the data set on Plasmodium falciparum, with Candida albicans and in the data set on Pyricularia grisea was “inactive” throughout. Also, the Activity entry with Vero [10] and in the data set on Vero [5] was “Not Active” each time.

Consider `CCCCCCCCCC[C@@H](C)[C@@H]1CC(=O)N[C@H]([C@@H](C)O)C(=O)N[C@@H](C)C(=O)N[C@H](C)C(=O)N[C@@H](CCC(N)=O)C(=O)N[C@H](Cc2ccc(O)cc2)C(=O)N[C@@H]([C@@H](C)CC)C(=O)O1`, for which the MIC (in [1]; against Bipolaris oryzae; against Venturia inaequalis) was 1 µg/mL (≈ 1.13 µM) each time.

One may read the MIC as the least concentration at which growth counts as inhibited. As usually defined, the IC50 is the concentration that gives 50% inhibition.

Source of the values: ChEMBL document CHEMBL1154844, “An antimycobacterial cyclodepsipeptide from the entomopathogenic fungus Ophiocordyceps communis BCC 16475” (J Nat Prod, 2010).
